{
  "source": "patent US10517870B2",
  "about": "“Aryl substituted bicycle heteroaryl compounds” (Bristol-Myers Squibb Company, priority 2015, dated 2019)",
  "key": {"[1]": {"test_system": "C33A (HPV−) cells", "test": "Cell proliferation/viability assay, C33A cells", "type": "cell-based", "details": "Homo sapiens, C-33-A, 96 h, read-out: C33A (HPV−) Proliferation IC50 (μM)", "method_in_brief": "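Cells plated in antibiotic-free growth medium, compound added 2 h later (0.5% DMSO final) and incubated 4 days at 37 °C. Viability by CellTiter Blue (ex 530/em 590 nm) or CellTiter Glo luminescence; IC50 from four-parameter logistic fit of % inhibition.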"}, "[2]": {"test_system": "platelet aggregation induced by gamma-thrombin", "test": "Gamma thrombin induced platelet aggregation assay in platelet rich plasma (PRP)", "type": "cell-based", "details": "human platelet rich plasma", "text": "The compounds of the current invention can be tested in vitro for their ability to inhibit platelet aggregation induced by gamma-thrombin as shown in Example C. Gamma-thrombin, a proteolytic product of alpha-thrombin which no longer interacts with PAR1, selectively cleaves and activates PAR4 (Soslau, G. et al., “Unique pathway of thrombin-induced platelet aggregation mediated by glycoprotein Ib”, J. Biol. Chem., 276:21173-21183 (2001)). Platelet aggregation can be monitored in a 96-well microplate aggregation assay format or using standard platelet aggregometer. […]\nThe ability of the compounds of the current invention to inhibit platelet aggregation induced by gamma-thrombin was tested in a 96-well microplate aggregation assay format. […] The plate was then placed into a SpcctraMax® Plus Plate Reader (Molecular Devices) at 37° C. Platelet aggregation was monitored at a wavelength of 405 nm using a kinetic analysis mode. […] Inhibition of platelet aggregation (IPA) was calculated based on the formula: % IPA=(100−100*[ODcompound−ODminimum]/[ODmaximum−ODminimum]). The IC50 value of the test compound was calculated by fitting the % IPA values to the one-site concentration response equation: Y=A+(B−A)/{1+(C/X)^D]}, using XLfit for 32 bit Excel® Version 2 Build 30 (ID Business Solutions Limited)."}},
  "data": [
    {"molecule": "COc1ccc(-c2cc(C)cc3nc(OC(F)F)cnc23)cc1", "note": "[Example 6, 2-(difluoromethoxy)-5-(4-methoxyphenyl)-7-methylquinoxaline]", "values": [
      {"measurement": "IC50", "setting": "[1]", "value": 44.8, "unit": "µM"},
      {"measurement": "IC50", "setting": "[2]", "value": "> 30", "unit": "µM"}
    ]}
  ]
}
